Data from PubChem BioAssay (NCI).
Converted amounts (≈) assume the structure as drawn. “And” between values parts separate entries of the source, which are not always exact repeats. Identical values can stand only once.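 Protocol summary: plate cells (96-well), add compound at 5 concentrations, incubate 48 h, interpolate endpoints linearly. GI50 = concentration required for 50% inhibition of growth. TGI: concentration producing complete growth inhibition.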 The source made the active and inactive calls. Rule as the data show it: active = GI50 below about 0.43 µM; inactive = the rest.

How the values were obtained:
Assay in all cases: NCI tumour cell line growth inhibition, 48 h
[1] = tested on: M19-MEL melanoma
[2] = tested on: XF 498 CNS
[3] = tested on: SNB-78 CNS
[4] = tested on: DMS 114 small cell lung
[5] = tested on: DMS 273 small cell lung
[6] = tested on: LXFL 529 NSCLC
[7] = tested on: HOP-18 NSCLC
[8] = tested on: BT-549 breast
[9] = tested on: MDA-N

SMILES: COc1c2nc(CCl)[nH]c(=O)c2c(OC)c2nc(CCl)[nH]c(=O)c12
- TGI [1]: > 100 µM
- TGI [2]: > 100 µM
- TGI [3]: > 100 µM
- TGI [4]: > 100 µM
- TGI [5]: > 100 µM
- TGI [6]: > 100 µM
- TGI [7]: > 100 µM

SMILES: O=C(O[C@H]1CN[C@H](C#Cc2cc3ncnc(Nc4ccc5c(ccn5Cc5cc(F)ccc5F)c4)c3s2)C1)N1CCOCC1
- GI50 [8]: 4.32 µM
- TGI [8]: 11 µM

SMILES: Cc1ccccc1NC(=O)N/C(N)=N/c1nc(-c2cccc([N+](=O)[O-])c2)cs1
- GI50 [8]: 2.16 µM
- TGI [8]: 5.37 µM

SMILES: COc1ccc([N+]2=NC(c3ccc([N+](=O)[O-])cc3)=NN(c3ccccc3)C2)cc1
- TGI [2]: > 100 µM
- TGI [3]: > 100 µM
- TGI [4]: > 100 µM
- TGI [5]: > 100 µM
- TGI [6]: > 100 µM

SMILES: NOCC(=O)O
- GI50 [8]: > 100 µM
- TGI [8]: > 100 µM

SMILES: COc1ccc(NC(=O)C(=O)C(C(=O)c2ccccc2)C2OC(=O)c3ccccc32)c([N+](=O)[O-])c1 (stereo not given)
- TGI [1]: > 100 µM
- TGI [2]: > 100 µM
- TGI [3]: > 100 µM
- TGI [4]: > 100 µM
- TGI [5]: > 100 µM
- TGI [6]: > 100 µM
- TGI [7]: > 100 µM

SMILES: O=C1c2ccccc2-c2c1c1ccccc1c(=O)n2CCCNCCCn1ccnc1
- GI50 [8]: 1.07 µM
- TGI [8]: 7.11 µM

SMILES: O=[N+]([O-])c1cc(Cl)c(Cl)c([N+](=O)[O-])c1Cl
- GI50 [8]: 1.81 µM
- TGI [8]: 3.39 µM

SMILES: O=C(Nc1cc(Cl)c(Cl)cc1Cl)C(=O)C1C=CCS1(=O)=O (stereo not given)
- TGI [1]: > 100 µM
- TGI [3]: > 100 µM
- TGI [4]: > 100 µM
- TGI [5]: > 100 µM
- TGI [6]: > 100 µM
- TGI [7]: > 100 µM

SMILES: CC(=O)CC(=O)Nc1ccc2ccccc2c1
- TGI [9]: > 100 µM
- TGI [8]: > 100 µM

SMILES: COC(=O)c1s/c(=N\C(=S)N(C)C)n(-c2ccccc2)c1C(=O)OC
- TGI [1]: > 100 µM
- TGI [3]: > 100 µM
- TGI [4]: > 100 µM
- TGI [5]: > 100 µM

SMILES: O=c1ccn(C2OC(CO)C(O)C2F)c(=O)[nH]1 (stereo not given)
- TGI [9]: > 100 µM
- GI50 [8]: > 85.9 µM
- TGI [8]: > 100 µM

SMILES: CC[C@H](NC(=O)[C@H](C)NC)C(=O)N1C[C@@H](O)C[C@H]1Cc1c(-c2[nH]c3cc(F)ccc3c2C[C@@H]2C[C@H](O)CN2C(=O)[C@H](CC)NC(=O)[C@H](C)NC)[nH]c2cc(F)ccc12
- GI50 [8]: 0.569 µM
- TGI [8]: > 41.8 µM

SMILES: Nc1c(C(=O)c2ccc(Cl)cc2)sc(Nc2ccccc2)c1-c1nc2ccccc2s1
- GI50 [8]: 2.29 µM
- TGI [8]: 19.5 µM

SMILES: O=C1OC(CC(=O)c2ccc(Cl)c(Cl)c2)C(Cl)=C1Cl (stereo not given)
- TGI [1]: > 100 µM
- TGI [2]: > 100 µM
- TGI [4]: > 100 µM
- TGI [5]: > 100 µM
- TGI [6]: > 100 µM
- TGI [7]: > 100 µM

SMILES: O=C1c2ccccc2C(=O)N1CCCSc1ccccc1
- TGI [9]: > 100 µM
- TGI [8]: > 100 µM

SMILES: CO[C@@H]1/C=C\C=C(/C)C(=O)NC2=CC(=O)C(NCCN(C)C)=C(C[C@@H](C)C[C@@H](OC)[C@@H](O)[C@H](C)/C=C(\C)[C@H]1OC(N)=O)C2=O
- TGI [9]: 1.92 µM and 2.18 µM
- GI50 [8]: 0.88 µM and 1.53 µM
- TGI [8]: 14.6 µM and 21.1 µM

SMILES: Cn1ccnc1CC(C)(O)c1ccccc1 (stereo not given)
- TGI [9]: > 100 µM
- TGI [8]: > 100 µM

SMILES: CN[C@@H](C)C(=O)N[C@H](C(=O)N1CCC[C@H]1C(=O)N[C@H]1c2ccccc2C[C@H]1OCC#CC#CCO[C@@H]1Cc2ccccc2[C@@H]1NC(=O)[C@@H]1CCCN1C(=O)[C@@H](NC(=O)[C@H](C)NC)C1CCCCC1)C1CCCCC1
- GI50 [8]: < 0.01 µM

SMILES: CC(=O)N[C@H]1C=C[C@@H]2/C=C(C)/C=C/[C@@H](C)[C@H]([C@H](C)[C@H](O)[C@@H](C)NC(C)=O)OC(=O)/C=C/C=C(C)\C=C\[C@]2(C)C1
- GI50 [8]: 0.023 µM and 0.0045 µM
- TGI [8]: 4.65 µM and > 45 µM

SMILES: ClCc1cccc(Cn2cnc3c(NC45CC6CC(CC(C6)C4)C5)ncnc32)c1
- GI50 [8]: 12.8 µM
- TGI [8]: 29.4 µM

SMILES: CC(C)(C#N)c1cc(Cn2cncn2)cc(C(C)(C)C#N)c1
- GI50 [8]: 472 µM
- TGI [8]: > 10000 µM

SMILES: CCCCc1c2c(nc3c1CCC/C3=C\c1ccccc1)C(=O)CCC2
- TGI [1]: 34.4 µM
- TGI [2]: 33.2 µM
- TGI [3]: 52.5 µM
- TGI [4]: 41.7 µM
- TGI [5]: 65.6 µM
- TGI [6]: > 100 µM
- TGI [7]: 79 µM

SMILES: CC(C)CS(=O)(=O)/C(=C(\c1ccc(Br)cc1)S(=O)(=O)CC(C)C)c1ccc(Br)cc1
- TGI [1]: > 100 µM
- TGI [2]: > 100 µM
- TGI [3]: > 100 µM
- TGI [5]: > 100 µM
- TGI [6]: > 100 µM
- TGI [7]: > 100 µM

SMILES: O=[N+]([O-])c1cccc(C2N3CCCCC3[C@@H]3c4[nH]c5ccccc5c4CCN23)c1 (stereo not given in full)
- TGI [1]: 25 µM
- TGI [2]: 27 µM
- TGI [3]: 26.1 µM
- TGI [4]: 22.2 µM
- TGI [5]: 26 µM
- TGI [6]: 60.8 µM
- TGI [7]: > 100 µM

SMILES: CC(=O)OCC1OC(N2C(=O)C(=O)c3cc(C)ccc32)C(OC(C)=O)C(OC(C)=O)C1OC(C)=O (stereo not given)
- TGI [1]: > 100 µM
- TGI [3]: > 100 µM
- TGI [4]: > 100 µM
- TGI [5]: > 100 µM
- TGI [6]: > 100 µM
- TGI [7]: > 100 µM

SMILES: Cc1c[nH]c2c(O)cc3c(c12)[C@H](CCl)CN3C(=O)c1cc2cc(NC(=O)Nc3ccc4[nH]c(C(=O)N5C[C@@H](CCl)c6c5cc(O)c5[nH]cc(C)c65)cc4c3)ccc2[nH]1
- GI50 [1]: 1.14 ng/mL (≈ 1.4 nM)
- TGI [1]: 3.44 ng/mL
- outcome [2]: inactive
- GI50 [3]: 0.000887 ng/mL and 2.73 ng/mL
- TGI [3]: 1.59 µM and 0.00887 µg/mL and 6.72 µg/mL
- GI50 [4]: 0.000887 ng/mL and 0.888 ng/mL
- GI50 [9]: 0.0123 µM
- GI50 [5]: 0.000887 ng/mL and 0.888 ng/mL
- outcome [7]: inactive

SMILES: COc1ccc(N2C(=O)CC(Cl)C2=O)cc1 (stereo not given)
- TGI [8]: > 100 µM

SMILES: Cc1cc(Cl)ccc1NC(=O)CCCC(=O)C1CCCC1=O (stereo not given)
- TGI [1]: > 100 µM
- TGI [2]: > 100 µM
- TGI [3]: > 100 µM
- TGI [4]: > 100 µM
- TGI [5]: > 100 µM
- TGI [6]: > 100 µM
- TGI [7]: > 100 µM

SMILES: Cc1[nH]c2ccccc2c1C1Cc2ccccc2N1C(=O)/C=C\C(=O)O (stereo not given)
- TGI [1]: > 100 µM
- TGI [2]: 47.8 µM
- TGI [3]: > 100 µM
- TGI [4]: 64.4 µM
- TGI [5]: > 100 µM
- TGI [6]: 41.1 µM

SMILES: CC1=C2[C@@H](CC1)[C@]1(C)O[C@@](C3CCCCC3)(C[C@H]1OC(=O)CO)[C@H]2OC(=O)/C=C/c1ccccc1
- GI50 [8]: 0.328 µM
- TGI [8]: 6.67 µM

SMILES: COc1cc2c(cc1OCCCOc1cc3c(cc1OC)C(=O)N1C[C@H](F)C[C@H]1C=N3)N=C[C@@H]1C[C@@H](F)CN1C2=O
- GI50 [8]: 3.36 µM
- TGI [8]: 17.9 µM

SMILES: COc1cc(Nc2nccc(Nc3ccc4c(C)[nH]nc4c3)n2)cc(OC)c1OC
- GI50 [8]: 3.3 µM
- TGI [8]: 11 µM

SMILES: CC(=O)c1c(C)[nH]c(-c2nc3ccc(N4CCN(C)CC4)cc3[nH]2)c1-c1ccc(OCC2CCOCC2)cc1
- GI50 [8]: 3.4 µM
- TGI [8]: 18 µM
